Reference: ChEMBL document CHEMBL1201862, “PubChem BioAssay data set” (2004)
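Exposure lasted 48 hours, with cells grown in 96-well plates and compounds tested at five concentrations. Here, GI50 denotes the concentration required for 50% inhibition of growth.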 The source made the active and inactive calls. Cut-off read from the data, not from the text of the source: active = GI50 up to about 1.1 µM and inactive = higher.

How the values were obtained:
Test in all cases: growth of human tumour cells (NCI), 48 h
786-0 = test system: 786-0
A498 = test system: A498
A549 = test system: A549
ACHN = test system: ACHN
HCT-116 = test system: HCT-116
HT-29 = test system: HT-29
KM12 = test system: KM12
LOX IMVI = test system: LOX IMVI
M14 = test system: M14
NCI-H23 = test system: NCI-H23
RXF 393 = test system: RXF 393
SK-OV-3 = test system: SK-OV-3
SNB-19 = test system: SNB-19
SNB-75 = test system: SNB-75
SW-620 = test system: SW-620
TK-10 = test system: TK-10
U-251 = test system: U-251
SF-539 = test system: SF-539
SK-MEL-2 = test system: SK-MEL-2

Measured: GI50

Nc1ccc(S(=O)(=O)c2ccc(NC(=O)c3cccnc3)cc2)cc1
inactive: 786-0 > 100 µM | A498 > 100 µM | A549 > 100 µM | ACHN > 100 µM | HCT-116 > 100 µM | HT-29 > 100 µM | KM12 > 100 µM | LOX IMVI > 100 µM | M14 > 100 µM | NCI-H23 > 100 µM | RXF 393 56.4 µM | SK-OV-3 > 100 µM | SNB-19 > 100 µM | SNB-75 30.8 µM | SW-620 > 100 µM | TK-10 > 100 µM | U-251 > 100 µM

C=C1C(=O)O[C@H]2C1[C@H](OC(=O)/C(C)=C\COC(C)=O)C[C@]1(CO1)[C@@H]1[C@H](O)[C@H]3O[C@@]3(C)[C@@H]12 (stereo not given in full)
inactive: A498 61.5 µM | A549 49.2 µM | HCT-116 13.1 µM | HT-29 19.1 µM | KM12 14.8 µM | LOX IMVI 16.7 µM | NCI-H23 14.3 µM | RXF 393 16.8 µM | SF-539 27 µM | SK-MEL-2 20.7 µM | SK-OV-3 > 67 µM | SNB-19 > 100 µM | SNB-75 37 µM | SW-620 13.2 µM | U-251 21.7 µM

C=C1C(=O)OC2/C=C(\C)CC(O)/C=C(/CO)CC(OC(=O)/C(C)=C/C)C12 (stereo not given)
inactive: A498 26.8 µM | A549 155 µM | HCT-116 29.6 µM | HT-29 54.6 µM | KM12 45 µM | LOX IMVI 12.3 µM | NCI-H23 27.7 µM | RXF 393 14.4 µM | SF-539 29 µM | SK-MEL-2 51.9 µM | SK-OV-3 158 µM | SNB-19 114 µM | SNB-75 133 µM | SW-620 17.6 µM | U-251 86.1 µM

Cc1nc(-c2cccnc2)sc1C(=O)/C=C/c1cccc([N+](=O)[O-])c1
inactive: 786-0 > 100 µM | A498 > 100 µM | A549 > 100 µM | HT-29 > 100 µM | KM12 > 100 µM | LOX IMVI > 100 µM | NCI-H23 > 100 µM | RXF 393 > 100 µM | SF-539 > 100 µM | SK-MEL-2 > 100 µM | SK-OV-3 > 100 µM | SNB-75 > 100 µM | SW-620 > 100 µM | TK-10 > 100 µM | U-251 > 100 µM

CC(=O)OCC1OC(O[C@@H]2C[C@H]3C(C)(C)[C@@H](OC(C)=O)CC[C@]3(C)[C@H]3CC[C@]45C[C@]4(CC[C@H]5[C@@H](C)C[C@@H](O)[C@H](O)C(C)(C)F)[C@@]32C)C(O)C(O)C1O (stereo not given in full)
inactive: 786-0 1.69 µM | A498 18.2 µM | A549 1.62 µM | ACHN 37.5 µM | HCT-116 1.56 µM | HT-29 1.64 µM | KM12 16.2 µM | LOX IMVI 1.77 µM | M14 1.76 µM | NCI-H23 2.22 µM | RXF 393 57.5 µM | SF-539 1.81 µM | SK-OV-3 42.2 µM | SNB-19 1.68 µM | SW-620 1.85 µM | TK-10 57.9 µM | U-251 18.2 µM

Cc1cccc(C)c1NC(=O)/C(Cc1nc2ccc([N+](=O)[O-])cc2nc1O)=N\NC(N)=O
inactive: 786-0 > 100 µM | A498 82.4 µM | A549 > 100 µM | ACHN 94 µM | HCT-116 83.2 µM | HT-29 > 100 µM | KM12 57.5 µM | LOX IMVI 22.1 µM | M14 > 100 µM | NCI-H23 > 100 µM | SF-539 > 100 µM | SK-MEL-2 > 100 µM | SK-OV-3 > 100 µM | SNB-19 > 100 µM | SNB-75 > 100 µM | SW-620 52.5 µM | TK-10 > 100 µM | U-251 > 100 µM

C=CCCC(OCOCCOC)c1cc(C)c(O[Si](C)(C)C(C)(C)C)c(C)c1 (stereo not given)
inactive: 786-0 14.9 µM | A498 22.8 µM | A549 16.4 µM | ACHN 13.2 µM | KM12 13.5 µM | LOX IMVI 13 µM | M14 34.4 µM | NCI-H23 14.5 µM | RXF 393 13.8 µM | SF-539 18.4 µM | SK-MEL-2 15.8 µM | SK-OV-3 25.4 µM | SNB-19 6.32 µM | SNB-75 15.6 µM | SW-620 16 µM | TK-10 22 µM | U-251 14.3 µM

CN(C)CC1(C)CC/C(=C\c2ccc(Cl)cc2)C1=O (stereo not given)
inactive: 786-0 59.2 µM | A498 49.1 µM | A549 66.8 µM | ACHN 44.9 µM | HCT-116 34.3 µM | HT-29 44.2 µM | KM12 31.8 µM | LOX IMVI 31.3 µM | M14 43.2 µM | NCI-H23 57.4 µM | RXF 393 22.4 µM | SF-539 46.5 µM | SK-MEL-2 > 100 µM | SNB-19 20.3 µM | SNB-75 45 µM | SW-620 16.5 µM | TK-10 88.5 µM | U-251 40.1 µM

Nc1n[n+](-c2ccccc2)no1
inactive: 786-0 52.1 µM | A498 46 µM | A549 39.6 µM | ACHN 8.49 µM | HCT-116 28.3 µM | HT-29 42.5 µM | KM12 10.1 µM | LOX IMVI 42 µM | M14 32.7 µM | NCI-H23 65.3 µM | SF-539 51.4 µM | SK-OV-3 > 100 µM | SNB-19 > 100 µM | SW-620 45.8 µM | TK-10 > 100 µM | U-251 51.4 µM

CCOC(=O)[C@@]12CCC(C1=O)[C@](C)(O)C[C@@H]2c1ccccc1
inactive: 786-0 23.1 µM | A549 50.4 µM | ACHN 53.2 µM | HCT-116 32.6 µM | HT-29 29.2 µM | KM12 31.8 µM | LOX IMVI 48.6 µM | M14 27.7 µM | NCI-H23 66.5 µM | RXF 393 29.3 µM | SF-539 32.7 µM | SK-MEL-2 38.1 µM | SK-OV-3 29.1 µM | SNB-19 43.7 µM | SNB-75 33 µM | SW-620 > 100 µM | TK-10 > 100 µM | U-251 33.7 µM

Nc1ncnc2c1nnn2C1C=CC(CP(=O)(O)O)C1 (stereo not given)
inactive: 786-0 > 100 µM | A549 > 100 µM | ACHN > 100 µM | HCT-116 > 100 µM | HT-29 > 100 µM | KM12 > 100 µM | LOX IMVI > 100 µM | M14 > 100 µM | NCI-H23 > 100 µM | RXF 393 > 100 µM | SF-539 > 100 µM | SK-MEL-2 > 100 µM | SK-OV-3 > 100 µM | SNB-19 > 100 µM | SW-620 > 100 µM | TK-10 > 100 µM | U-251 > 100 µM

C1=CC=C2NCCSCC/N=C3/C=CC=CC=C3NCCSCC/N=C\2C=C1
inactive: 786-0 > 100 µM | A498 > 100 µM | A549 > 100 µM | ACHN > 100 µM | HCT-116 > 100 µM | HT-29 > 100 µM | KM12 > 100 µM | LOX IMVI > 100 µM | M14 > 100 µM | NCI-H23 > 100 µM | SK-MEL-2 > 100 µM | SK-OV-3 > 100 µM | SNB-19 > 100 µM | SNB-75 > 100 µM | SW-620 > 100 µM | TK-10 > 100 µM | U-251 > 100 µM
